One compound from patent US8945549B2, “Methods of treating antinociceptive tolerance” (Saint Louis University, priority 2010, dated 2015) can be followed below.

In one assay the test system is S1P. The experiment in a line: S1P levels in dorsal horn tissue by ELISA. The class given is in vivo, rat.
The subject of assay [1] is Male Sprague Dawley rats. The assay can be described thus: Antinociceptive tolerance (tail flick after acute morphine) in rats with chronic s.c. morphine or saline infusion. It counts as in vivo, rat. As to conditions: acute i.th injection; n=4, not shown.
Assay [2] has as its system Male Sprague Dawley rats. The assay can be described thus: Thermal hyperalgesia (Hargreaves paw-withdrawal latency) in rats with chronic s.c. morphine or saline infusion. The class given is in vivo, rat. How it is done:
(§1) Osmotic pump implantation. Rats, under light isoflurane anesthesia, were subcutaneously implanted (in the interscapular region) with osmotic pumps (Alzet 2001; Alza, Mountain View Calif.), to deliver saline at 1 μl/h or morphine at 75 μg μl^−1h^−1 over 7 days as described (Vera-Portocarrero et al., 2006). Minipumps were filled according to manufacturer's specifications. The use of the osmotic pump ensures a continuous delivery of morphine avoiding intermittent periods of withdrawal. The integrity of the pump delivery system was reexamined at the end of each experiment when the spinal cords were harvested.
(§2) Drug administration. The test substances fumonisin B1 (FB 1, Sigma-Aldrich, St. Louis, Mo.), myriocin (Myr Sigma-Aldrich, St. Louis, Mo.), D609 (Tricyclodecan-9-ylxanthogenate, K; Calbiochem, San Diego, Calif.), DMS (N,N-Dimethylsphingosine, Caymen Chemical, Ann Arbor, Mich.), SK-I 2-(p-hydroxyanilino)-4-(p-chlorophenyl) thiazole, Calbiochem, San Diego, Calif.) or their vehicle (0.5% in DMSO) were delivered by intrathecal (i.th) injection in rats chronically implanted with i.th cannulas as described previously (Storkson et al., 1996). Test substances were injected i.th once a day for 6 days in a total volume of 10 μl followed by a 10 μl flush with sterile physiological saline.
Behavioral tests. Thermal hyperalgesia. The method of Hargreaves and colleagues was used to assess changes in baseline nociceptive responses to a thermal nociceptive stimulus (Hargreaves et al., 1988). Animals were allowed to acclimate within a Plexiglas enclosure on a clear glass plate in a quiet testing room. A radiant heat source is focused onto the plantar aspect of the hindpaw with baseline latencies of 18-20 sec. and a maximal cutoff time of 20 sec to prevent tissue damage. The paw-withdrawal latency is determined by a motion detector activated by the paw withdrawal, stopping a timer. Foot withdrawal latencies were taken on the day before implantation of the minipumps (baseline) and subsequently on days 1, 3 and 6 of the experimental period to determine whether morphine-tolerant animals develop increased sensitivity to thermal stimulation. A significant (P<0.05) reduction in paw-withdrawal latency over time and before implantation of the osmotic minipump is characterized as thermal hyperalgesia. […]

Assay [3] in a line: Carrageenan-induced inflammation. The class given is in vivo. As to conditions: intraplantar injection 15 min before carrageenan.
For assay [4], the system named is Male Sprague Dawley rats. The experiment in a line: Antinociceptive tolerance (tail flick after acute morphine) in rats with chronic s.c. morphine or saline infusion. The class given is in vivo, rat. How it is done:
as §1, §2
After the Hargreave's test, the development of antinociceptive tolerance was determined in all animals as follows. Acute nociception. The tail flick test which measures, withdrawal latencies of the tail from a noxious radiant heat source was used to measure thermal nociceptive sensitivity with baseline latencies of 4-5 sec and it cut-off time of 10 sec to prevent tissue injury (D'Amour, 1941). […]. Test substances or vehicle were given on day 0-6 after completion of the behavioral tests. At the required time points, after the behavioral tests, spinal cord tissues from the lumbar, enlargement segment of the spinal cord (L4-L6) and dorsal horn tissues were removed and tissues processed for immunohistochemical, Western blot and biochemical analysis. All experiments were conducted with the experimenters blinded to treatment conditions. […]

The test system of a further assay is rats. The experiment in a line: Carrageenan-induced thermal hyperalgesia. It counts as in vivo, rat. To be noted: intraplantar SK-1 250, 500 or 1000 ng.
Setting [5] is: daily i.th for 6 days with s.c. morphine infusion, Myr 0.3, FB1 1, D609 1, DMS 0.3, SK-1 0.3 μM/day.

In the case of `Oc1ccc(Nc2nc(-c3ccc(Cl)cc3)cs2)cc1` [SK-1, 2-(p-hydroxyanilino)-4-(p-chlorophenyl) thiazole], in the assay on S1P (setting [5]), the “morphine-induced increased production of S1P in dorsal horn tissues” value is recorded as “blocked”. In addition, the “effect on S1P levels in spinal cord tissues” value in the assay on S1P (drug alone vs Veh-Sal, day 6) was “did not affect”. The “S1P (pg/mg tissue)” value in the assay with S1P (rat, in vivo) is 1.3 ± 0.06 pg/mg tissue. In addition, the “reversal of tolerance once established” value in the assay with Male Sprague Dawley rats [1] is listed as “did not reverse”. In the assay on Male Sprague Dawley rats [2] (setting [5]), the “development of morphine-induced hyperalgesia” value is recorded as “blocked”. Also, in the assay on Male Sprague Dawley rats [2] (drug alone vs Veh-Sal, day 6), the “effect on paw-withdrawal latencies” value was “did not affect”. In addition, the “Paw-Withdrawal Latency” value in the assay with Male Sprague Dawley rats [2] (drug given alone i.th daily over 6 days to saline-infused rats, day 6, mean ± SEM) amounted to 19 ± 0.7 s. The carrageenan-induced inflammation entry in assay [3] was “blocks”. Further, in the assay with Male Sprague Dawley rats [4] (setting [5]), the “development of morphine antinociceptive tolerance” value is given as “blocked”. For the same compound, the “effect on antinociceptive responses to acute morphine” value with Male Sprague Dawley rats [4] (drug alone vs Veh-Sal, day 6) is on record as “did not affect”. Moreover, in the assay with Male Sprague Dawley rats [4] (drug given alone i.th daily over 6 days to saline-infused rats, response to acute morphine, day 6, mean ± SEM), the “% MPE (Tail-flick)” value came to 99 ± 0.9%. The carrageenan-induced thermal hyperalgesia result in the assay with rats is “attenuated in a dose-dependent manner”.
